Assay results published in ChEMBL document CHEMBL1201862, “PubChem BioAssay data set” (2004).
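Interpolation was linear, between the two tested concentrations surrounding the appropriate level; five concentrations were tested over 48 hours in 96-well plates. GI50 marks 50% less growth.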 Calls of active or inactive are those of the source. Rule as the data show it: active = GI50 up to about 1.1 µM and inactive = higher.

How the values were obtained:
Test in all cases: NCI tumour cell line growth inhibition, 48 h
HCT-15 = test system: HCT-15
NCI-H460 = test system: NCI-H460
COLO 205 = test system: COLO 205
A549 = test system: A549
NCI/ADR-RES = test system: NCI/ADR-RES
SN12C = test system: SN12C
786-0 = test system: 786-0
U-251 = test system: U-251
MDA-MB-231 = test system: MDA-MB-231
UACC-62 = test system: UACC-62
SK-MEL-2 = test system: SK-MEL-2
LOX IMVI = test system: LOX IMVI
SF-295 = test system: SF-295
HT-29 = test system: HT-29
OVCAR-5 = test system: OVCAR-5
MOLT-4 = test system: MOLT-4
TK-10 = test system: TK-10
OVCAR-8 = test system: OVCAR-8
MCF7 = test system: MCF7
A498 = test system: A498
PC-3 = test system: PC-3
SK-OV-3 = test system: SK-OV-3
MDA-N = test system: MDA-N
SF-539 = test system: SF-539
SW-620 = test system: SW-620
OVCAR-3 = test system: OVCAR-3
HCC 2998 = test system: HCC 2998
Hs-578T = test system: Hs-578T
ACHN = test system: ACHN
EKVX = test system: EKVX
Malme-3M = test system: Malme-3M
CCRF-CEM = test system: CCRF-CEM
OVCAR-4 = test system: OVCAR-4
KM12 = test system: KM12
M14 = test system: M14
HCT-116 = test system: HCT-116
DU-145 = test system: DU-145
CAKI-1 = test system: CAKI-1
RXF 393 = test system: RXF 393
SNB-19 = test system: SNB-19
SK-MEL-28 = test system: SK-MEL-28
HOP-62 = test system: HOP-62
NCI-H522 = test system: NCI-H522
UACC-257 = test system: UACC-257
IGROV-1 = test system: IGROV-1
HL-60 = test system: HL-60
NCI-H23 = test system: NCI-H23
SF-268 = test system: SF-268
HOP-92 = test system: HOP-92
NCI-H226 = test system: NCI-H226
K562 = test system: K562
T47D = test system: T47D
MDA-MB-435 = test system: MDA-MB-435
RPMI-8226 = test system: RPMI-8226
BT-549 = test system: BT-549
UO-31 = test system: UO-31
SK-MEL-5 = test system: SK-MEL-5
SNB-75 = test system: SNB-75

With `O=C(N/N=C(COc1cccc(Cl)c1)\N=C\c1ccncc1)c1ccncc1` the GI50 (HCT-15) was over 100 µM, the GI50 (NCI-H460) was > 100 µM (inactive) and the GI50 (COLO 205) was > 100 µM (inactive). For the same compound, the GI50 (A549) was > 100 µM (inactive), the GI50 (NCI/ADR-RES) was > 100 µM (inactive) and the GI50 (SN12C) was > 100 µM (inactive). The GI50 (786-0) was > 100 µM (inactive), the GI50 (U-251) was > 100 µM (inactive) and the GI50 (MDA-MB-231) was > 100 µM (inactive). The GI50 (UACC-62) was > 100 µM (inactive), the GI50 (SK-MEL-2) was > 100 µM (inactive) and the GI50 (LOX IMVI) was > 100 µM (inactive). The GI50 (SF-295) was > 100 µM (inactive), the GI50 (HT-29) was > 100 µM (inactive) and the GI50 (OVCAR-5) was > 100 µM (inactive). For the same compound, the GI50 (MOLT-4) was > 100 µM (inactive), the GI50 (TK-10) was > 100 µM (inactive) and the GI50 (OVCAR-8) was > 100 µM (inactive). For the same compound, the GI50 (MCF7) was > 100 µM (inactive), the GI50 (A498) was 68.9 µM (inactive) and the GI50 (PC-3) was > 100 µM (inactive). The GI50 (SK-OV-3) was > 100 µM (inactive), the GI50 (MDA-N) was > 100 µM (inactive) and the GI50 (SF-539) was > 100 µM (inactive). The GI50 (SW-620) was > 100 µM (inactive), the GI50 (OVCAR-3) was > 100 µM (inactive) and the GI50 (HCC 2998) was > 100 µM (inactive). For the same compound, the GI50 (Hs-578T) was > 100 µM (inactive), the GI50 (ACHN) was > 100 µM (inactive) and the GI50 (EKVX) was > 100 µM (inactive). The GI50 (Malme-3M) was > 100 µM (inactive), the GI50 (CCRF-CEM) was > 100 µM (inactive) and the GI50 (OVCAR-4) was > 100 µM (inactive). The GI50 (KM12) was > 100 µM (inactive), the GI50 (M14) was > 100 µM (inactive) and the GI50 (HCT-116) was > 100 µM (inactive). The GI50 (DU-145) was > 100 µM (inactive), the GI50 (CAKI-1) was > 100 µM (inactive) and the GI50 (RXF 393) was 36.4 µM (inactive). For the same compound, the GI50 (SNB-19) was > 100 µM (inactive), the GI50 (SK-MEL-28) was > 100 µM (inactive) and the GI50 (HOP-62) was > 100 µM (inactive). For the same compound, the GI50 (NCI-H522) was > 100 µM (inactive), the GI50 (UACC-257) was > 100 µM (inactive) and the GI50 (IGROV-1) was > 100 µM (inactive). For the same compound, the GI50 (HL-60) was > 100 µM (inactive), the GI50 (NCI-H23) was > 100 µM (inactive) and the GI50 (SF-268) was > 100 µM (inactive). For the same compound, the GI50 (HOP-92) was 35.6 µM (inactive), the GI50 (NCI-H226) was > 100 µM (inactive) and the GI50 (K562) was > 100 µM (inactive). The GI50 (T47D) was > 100 µM (inactive), the GI50 (MDA-MB-435) was 75.3 µM (inactive) and the GI50 (RPMI-8226) was > 100 µM (inactive). The GI50 (BT-549) was > 100 µM (inactive).
For `COc1ccc2c(c1)CCCN1Cc3cc(OC)c(OC)cc3CC21` (centres undefined), the GI50 (HCT-15) was over 100 µM, the GI50 (NCI-H460) was 50.2 µM (inactive) and the GI50 (COLO 205) was 51.1 µM (inactive). The GI50 (A549) was > 100 µM (inactive), the GI50 (NCI/ADR-RES) was > 100 µM (inactive) and the GI50 (SN12C) was 89.1 µM (inactive). The GI50 (786-0) was 73.3 µM (inactive), the GI50 (U-251) was > 100 µM (inactive) and the GI50 (MDA-MB-231) was > 100 µM (inactive). For the same compound, the GI50 (UACC-62) was 86.3 µM (inactive), the GI50 (LOX IMVI) was 44.8 µM (inactive) and the GI50 (SF-295) was > 100 µM (inactive). For the same compound, the GI50 (HT-29) was 28.1 µM (inactive), the GI50 (OVCAR-5) was > 100 µM (inactive) and the GI50 (MOLT-4) was > 100 µM (inactive). The GI50 (TK-10) was > 100 µM (inactive), the GI50 (OVCAR-8) was > 100 µM (inactive) and the GI50 (MCF7) was > 100 µM (inactive). The GI50 (PC-3) was > 100 µM (inactive), the GI50 (SK-OV-3) was 66.2 µM (inactive) and the GI50 (MDA-N) was > 100 µM (inactive). The GI50 (SF-539) was 81.8 µM (inactive), the GI50 (SW-620) was > 100 µM (inactive) and the GI50 (OVCAR-3) was 82.2 µM (inactive). For the same compound, the GI50 (HCC 2998) was 15.8 µM (inactive), the GI50 (Hs-578T) was > 100 µM (inactive) and the GI50 (ACHN) was > 100 µM (inactive). For the same compound, the GI50 (EKVX) was > 100 µM (inactive), the GI50 (Malme-3M) was > 100 µM (inactive) and the GI50 (CCRF-CEM) was 99.8 µM (inactive). For the same compound, the GI50 (OVCAR-4) was 43.7 µM (inactive), the GI50 (KM12) was > 100 µM (inactive) and the GI50 (UO-31) was 48.8 µM (inactive). For the same compound, the GI50 (M14) was 18.9 µM (inactive), the GI50 (HCT-116) was 18.2 µM (inactive) and the GI50 (DU-145) was > 100 µM (inactive). The GI50 (CAKI-1) was > 100 µM (inactive), the GI50 (RXF 393) was 25.6 µM (inactive) and the GI50 (SNB-19) was > 100 µM (inactive). The GI50 (SK-MEL-5) was 37.8 µM (inactive), the GI50 (SK-MEL-28) was > 100 µM (inactive) and the GI50 (HOP-62) was 60.4 µM (inactive). The GI50 (NCI-H522) was 75.5 µM (inactive), the GI50 (UACC-257) was 56.1 µM (inactive) and the GI50 (IGROV-1) was 22.1 µM (inactive). For the same compound, the GI50 (NCI-H23) was > 100 µM (inactive), the GI50 (SF-268) was 50.9 µM (inactive) and the GI50 (HOP-92) was 15.9 µM (inactive). For the same compound, the GI50 (NCI-H226) was > 100 µM (inactive), the GI50 (K562) was 80.7 µM (inactive) and the GI50 (T47D) was 20.2 µM (inactive). For the same compound, the GI50 (MDA-MB-435) was > 100 µM (inactive), the GI50 (BT-549) was > 100 µM (inactive) and the GI50 (SNB-75) was 21.4 µM (inactive).
